Laboratory results reported in ChEMBL document CHEMBL5120927, “LEGO-Lipophosphonoxins: A Novel Approach in Designing Membrane Targeting Antimicrobials” (J Med Chem, 2022).

Assays:
Enterococcus faecalis = assay: Antibacterial activity against Enterococcus faecalis ATCC 29212 = CCM 4224 assessed as inhibition of bacterial growth incubated for 24 hrs by microdilution assay; assay type: functional
Staphylococcus aureus [1] = assay: Antibacterial activity against Staphylococcus aureus ATCC 29213 = CCM 4223 assessed as inhibition of bacterial growth incubated for 24 hrs by microdilution assay; assay type: functional
Staphylococcus aureus [2] = assay: Antibacterial activity against Staphylococcus aureus ATCC 29213 = CCM 4223 assessed as inhibition of bacterial growth incubated for 24 hrs in presence of BSA by microdilution assay; assay type: functional
Escherichia coli [3] = assay: Antibacterial activity against Escherichia coli ATCC 25922 = CCM 3954 assessed as inhibition of bacterial growth incubated for 24 hrs by microdilution assay; assay type: functional
Escherichia coli [4] = assay: Antibacterial activity against Escherichia coli ATCC 25922 = CCM 3954 assessed as inhibition of bacterial growth incubated for 24 hrs in presence of BSA by microdilution assay; assay type: functional
Pseudomonas aeruginosa [5] = assay: Antibacterial activity against Pseudomonas aeruginosa ATCC 27853 = CCM 3955 assessed as inhibition of bacterial growth incubated for 24 hrs by microdilution assay; assay type: functional
[6] = Hemolytic activity in human RBC assessed as haemoglobin release measured after 3 hr; assay type: toxicity, cell-based, Erythrocyte; conditions: red blood cells (erythrocytes)
[7] = Gradient chromatographic hydrophobicity index of the compound at pH 3.7 by HPLC analysis; assay type: ADME
[8] = test system: Staphylococcus epidermidis; assay: Antibacterial activity against Staphylococcus epidermidis CCM 7221 assessed as inhibition of bacterial growth incubated for 24 hrs by microdilution assay; assay type: functional
Staphylococcus aureus [9] = assay: Antibacterial activity against methicillin resistant Staphylococcus aureus 4591/A assessed as reduction in microbial growth incubated for 24 hrs by microdilution assay; assay type: functional
Escherichia coli [10] = assay: Antibacterial activity against multidrug-resistant Escherichia coli CE5556 expressing CTX-M-15 assessed as reduction in microbial growth incubated for 24 hrs by microdilution assay; assay type: functional
Enterococcus faecium = assay: Antibacterial activity against vancomycin resistant Enterococcus faecium 419/ANA assessed as reduction in microbial growth incubated for 24 hrs by microdilution assay; assay type: functional
Pseudomonas aeruginosa [11] = assay: Antibacterial activity against multidrug-resistant Pseudomonas aeruginosa assessed as reduction in microbial growth incubated for 24 hrs by microdilution assay; assay type: functional

Row | Structure (SMILES) | MIC (Enterococcus faecalis) | MIC (Staphylococcus aureus [1]) | MIC (Staphylococcus aureus [2]) | MIC (Escherichia coli [3]) | MIC (Escherichia coli [4]) | MIC (Pseudomonas aeruginosa [5]) | HC50 at 3 h [6] | CHI [7] | MIC [8] | MIC (Staphylococcus aureus [9]) | MIC (Escherichia coli [10]) | MIC (Enterococcus faecium) | MIC (Pseudomonas aeruginosa [11])
1 | CCCCC/C=C\CCCOP(=O)(CCN(CCCN)CCCN)OCCCCCCOP(=O)(CCN(CCCN)CCCN)OCCC/C=C\CCCCC.Cl.Cl.Cl.Cl.Cl.Cl (configuration not stated) | 1 µg/mL | 0.5 µg/mL | 1 µg/mL | 0.5 µg/mL | 1 µg/mL | 2 µg/mL | 43 µg/mL | 40.6 | 0.5 µg/mL | 0.5 µg/mL | 1 µg/mL | 2 µg/mL | 2 µg/mL
2 | CC(C)COP(=O)(CCN(CCCN)CCCN)OCCCCCCCCCCOP(=O)(CCN(CCCN)CCCN)OCC(C)C.Cl.Cl.Cl.Cl.Cl.Cl (configuration not stated) | 64 µg/mL | 32 µg/mL | 16 µg/mL | > 128 µg/mL | > 128 µg/mL | 128 µg/mL | > 500 µg/mL | 35 | 8 µg/mL | 16 µg/mL | 128 µg/mL | 128 µg/mL | 64 µg/mL
3 | CCC/C=C\CCOP(=O)(CCN(CCCN)CCCN)OCCCCCOP(=O)(CCN(CCCN)CCCN)OCC/C=C\CCC.Cl.Cl.Cl.Cl.Cl.Cl (configuration not stated) | > 128 µg/mL | 32 µg/mL | 64 µg/mL | 128 µg/mL | 128 µg/mL | > 128 µg/mL | > 250 µg/mL | 28.2 | 128 µg/mL | 32 µg/mL | > 128 µg/mL | > 128 µg/mL | > 128 µg/mL
4 | CCC/C=C\CCOP(=O)(CCN(CCN)CCN)OCCCCCCCOP(=O)(CCN(CCN)CCN)OCC/C=C\CCC.Cl.Cl.Cl.Cl.Cl.Cl (configuration not stated) | 16 µg/mL | 2 µg/mL | 4 µg/mL | > 128 µg/mL | 16 µg/mL | 32 µg/mL | > 500 µg/mL | 37.4 | 0.5 µg/mL | 1 µg/mL | 32 µg/mL | 128 µg/mL | 32 µg/mL
5 | Cl.Cl.Cl.Cl.Cl.Cl.N=C(N)NCCCN(CCCNC(=N)N)CCP(=O)(OCCCCCOP(=O)(CCN(CCCNC(=N)N)CCCNC(=N)N)OCC12CC3CC(CC(C3)C1)C2)OCC12CC3CC(CC(C3)C1)C2 (configuration not stated) | 4 µg/mL | 1 µg/mL | 0.5 µg/mL | 1 µg/mL | 2 µg/mL | 8 µg/mL | 259 µg/mL | 333 | 0.5 µg/mL | 1 µg/mL | 1 µg/mL | 8 µg/mL | 8 µg/mL
6 | CCC/C=C\CCOP(=O)(CCN(CCCN)CCCN)OCCCCCCCCOP(=O)(CCN(CCCN)CCCN)OCC/C=C\CCC.Cl.Cl.Cl.Cl.Cl.Cl (configuration not stated) | 64 µg/mL | 8 µg/mL | 8 µg/mL | 1 µg/mL | 64 µg/mL | 128 µg/mL | > 200 µg/mL | 32.8 | 2 µg/mL | 4 µg/mL | 16 µg/mL | > 128 µg/mL | 128 µg/mL
7 | CC/C=C\CCCOP(=O)(CCN(CCCN)CCCN)OCCCOP(=O)(CCN(CCCN)CCCN)OCCC/C=C\CC.Cl.Cl.Cl.Cl.Cl.Cl (configuration not stated) | > 128 µg/mL | 128 µg/mL | > 128 µg/mL | > 128 µg/mL | > 128 µg/mL | > 128 µg/mL | > 200 µg/mL | 25.1 | 32 µg/mL | 64 µg/mL | > 128 µg/mL | > 128 µg/mL | > 128 µg/mL
8 | CCCC/C=C\CCOP(=O)(CCN(CCCNC(=N)N)CCCNC(=N)N)OCCCCCCOP(=O)(CCN(CCCNC(=N)N)CCCNC(=N)N)OCC/C=C\CCCC.Cl.Cl.Cl.Cl.Cl.Cl (configuration not stated) | 8 µg/mL | 1 µg/mL | 0.2 µg/mL | 4 µg/mL | 0.5 µg/mL | 16 µg/mL | 169 µg/mL | 333 | 1 µg/mL | 1 µg/mL | 2 µg/mL | 32 µg/mL | 16 µg/mL
9 | CCCC/C=C\CCOP(=O)(CCN(CCCN)CCCN)OCCCOP(=O)(CCN(CCCN)CCCN)OCC/C=C\CCCC.Cl.Cl.Cl.Cl.Cl.Cl (configuration not stated) | 128 µg/mL | 16 µg/mL | 32 µg/mL | 128 µg/mL | 128 µg/mL | 64 µg/mL | > 200 µg/mL | 31.3 | 8 µg/mL | 16 µg/mL | 128 µg/mL | > 128 µg/mL | 128 µg/mL
10 | CCCCCCOP(=O)(CCN(CCN)CCN)OCCCCCCCCOP(=O)(CCN(CCN)CCN)OCCCCCC.Cl.Cl.Cl.Cl.Cl.Cl (configuration not stated) | 16 µg/mL | 2 µg/mL | 1 µg/mL | 8 µg/mL | 16 µg/mL | 32 µg/mL | 231 µg/mL | 38.6 | 2 µg/mL | 2 µg/mL | 64 µg/mL | 128 µg/mL | 64 µg/mL
11 | Cl.Cl.Cl.Cl.Cl.Cl.NCCCN(CCCN)CCP(=O)(OCCCCCCCCOP(=O)(CCN(CCCN)CCCN)OCCc1ccccc1)OCCc1ccccc1 (configuration not stated) | 128 µg/mL | 16 µg/mL | 32 µg/mL | 128 µg/mL | 128 µg/mL | 128 µg/mL | > 200 µg/mL | 27.3 | 8 µg/mL | 16 µg/mL | 128 µg/mL | 128 µg/mL | 128 µg/mL
12 | CCCCOP(=O)(CCN(CCCN)CCCN)OCCCCCCCCCCCCOP(=O)(CCN(CCCN)CCCN)OCCCC.Cl.Cl.Cl.Cl.Cl.Cl (configuration not stated) | 32 µg/mL | 4 µg/mL | 16 µg/mL | 128 µg/mL | 128 µg/mL | 32 µg/mL | > 500 µg/mL | 31.4 | 1 µg/mL | 4 µg/mL | > 128 µg/mL | > 128 µg/mL | 16 µg/mL
13 | CC(C)COP(=O)(CCN(CCCN)CCCN)OCCCCCCCCOP(=O)(CCN(CCCN)CCCN)OCC(C)C.Cl.Cl.Cl.Cl.Cl.Cl (configuration not stated) | > 128 µg/mL | > 128 µg/mL | > 128 µg/mL | > 128 µg/mL | > 128 µg/mL | > 128 µg/mL | > 1000 µg/mL | 25.2 | 32 µg/mL | > 128 µg/mL | > 128 µg/mL | > 128 µg/mL | > 128 µg/mL
14 | CCCCCCCCOP(=O)(CCN(CCN)CCN)OCCCCCCCCOP(=O)(CCN(CCN)CCN)OCCCCCCCC.Cl.Cl.Cl.Cl.Cl.Cl (configuration not stated) | 1 µg/mL | 0.5 µg/mL | 0.2 µg/mL | 64 µg/mL | 5 µg/mL | 1 µg/mL | 19 µg/mL | 45.2 | 0.2 µg/mL | 3 µg/mL | 1 µg/mL | 2 µg/mL | 1 µg/mL
